Reference: article PMC7293270 (Scientific Reports, 2020)
Read-outs that look alike come from different tables or passages of the source.

Assays:
[1] = Biliary excretion pharmacokinetics of Rho-123 after RT in freely moving rats; type: in vivo, Sprague-Dawley rats; conditions: for AUC(0-t) / Cmax / MRT / Tmax / clearance / half-life: Sprague-Dawley, rat, bile, iv, 0.2 mg/kg, biliary excretion; for half-life: read-out: t½
Procedure: A freely moving rat model was designed for the current study[21] (Fig. 1A). Experimental rats were anesthetized with 1 g/mL urethane and 0.1 g/mL α-chloralose (1 mL/kg by intraperitoneal [i.p.] injection), and polyethylene tubes were then implanted in the right jugular vein for intravenous (i.v.) fluid administration. The right jugular vein was catheterized for blood sampling. The catheter traversed the subcutaneous tissue and was fixed in the dorsal neck region. After surgery, the rats were placed in an experimental cage and allowed to recover for 1 day. During the recovery period, the rats were kept warm under a light. Then, the rats were anesthetized and immobilized on a board while undergoing CT for localization of the whole liver (conventional technique, Fig. 1B) or a central area of 1.5 × 1.5 cm (SBRT technique, Fig. 1C). […] An equal volume of methanol was added to 100-μL aliquots of bile and plasma sample specimens for deproteinization. The mixture was vortexed for 15 s and centrifuged at 12000 × g for 10 min.

[2] = tested on: P-gp; test: Rho-123 transport assay (flow cytometry) for P-gp activity with RT and NF-κB inhibitor SN50; type: cell-based; conditions: Huh-7, 20 μM Rho-123
Procedure: In brief, Huh-7 cells were seeded in a 6-well plate. RT0Gy, RT2Gy, or RT9Gy was applied. At 1 hr or 24 hr after RT, ketoconazole (a P-gp inhibitor), digoxin (a P-gp substrate) and DMSO were added to the corresponding wells and incubated at 37 °C. The existing medium was replaced with 20 μM Rho-123 solution and incubated for 1 hr. Then, the cells were analyzed (10000 cells/sample) to measure Rho-123 accumulation with a FACSCalibur flow cytometer (excitation (Ex) = 515 nm, emission (Em) = 545 nm; Becton Dickinson, San Jose, CA, USA). The data were analyzed with CellQuest software (Becton Dickinson, San Jose, CA, USA).
The peptide SN50 inhibits nuclear translocation of NF-κB. SN50M was used as a negative control. In brief, Huh-7 cells were pretreated with 20 μM SN50 or SN50M (Enzo Life Sciences, Inc., Farmingdale, NY, USA) for 1 hr and were then irradiated. At 1 hr or 24 hr after RT, the existing medium was replaced with 20 μM Rho-123 and incubated for 1 hr. The cells were analyzed (10000 cells/sample) to measure Rho-123 accumulation with a FACSCalibur flow cytometer (Ex = 515 nm, Em = 545 nm; Becton Dickinson, San Jose, CA, USA). The data were analyzed with CellQuest software (Becton Dickinson, San Jose, CA, USA).

[3] = RT2Gy, Rho-123 10 min later (concurrent)
[4] = RT2Gy, Rho-123 24 hr later (sequential)
[5] = RT9Gy, Rho-123 10 min later (concurrent)
[6] = RT9Gy, Rho-123 24 hr later (sequential)
[7] = sham RT, Rho-123 0.2 mg/kg i.v., rats

COC(=O)c1ccccc1-c1c2ccc(=N)cc-2oc2cc(N)ccc12 [Rho-123, rhodamine 123]
AUC(0-t) ([1]; RT2Gy, Rho-123 0.2 mg/kg i.v. 10 min later (concurrent)): 3170 ng·h/mL
AUC(0-t) ([1]; RT2Gy, Rho-123 0.2 mg/kg i.v. 24 hr later (sequential)): 1920 ng·h/mL
Cmax [1, 3]: 3560 ± 1930 ng/mL
MRT [1, 3]: 66 min
Tmax [1, 3]: 11 min
clearance [1, 3]: 0.92 ± 0.23 mL/min/kg
half-life [1, 3]: 46 ± 13 min
Cmax [1, 4]: 2240 ± 570 ng/mL
MRT [1, 4]: 47 min
Tmax [1, 4]: 9 min
clearance [1, 4]: 1.73 ± 0.61 mL/min/kg
half-life [1, 4]: 32 ± 8 min
AUC(0-t) ([1]; RT9Gy, Rho-123 0.2 mg/kg i.v. 10 min later (concurrent)): 2710 ng·h/mL
AUC(0-t) ([1]; RT9Gy, Rho-123 0.2 mg/kg i.v. 24 hr later (sequential)): 1660 ng·h/mL
Cmax [1, 5]: 2860 ± 830 ng/mL
MRT [1, 5]: 66 min
Tmax [1, 5]: 11 min
clearance [1, 5]: 1.07 ± 0.33 mL/min/kg
half-life [1, 5]: 43 ± 6 min
Cmax [1, 6]: 2070 ± 750 ng/mL
MRT [1, 6]: 50 min
Tmax [1, 6]: 13 min
clearance [1, 6]: 1.91 ± 0.56 mL/min/kg
half-life [1, 6]: 34 ± 9 min
AUC(0-t) [1, 7]: 1880 ng·h/mL
Cmax [1, 7]: 2010 ± 600 ng/mL
MRT [1, 7]: 61 min
Tmax [1, 7]: 14 min
clearance [1, 7]: 1.56 ± 0.3 mL/min/kg
half-life [1, 7]: 42 ± 13 min
Increase in AUC of biliary excretion ([1]; concurrent RT2Gy compared to sham group): 69.0%
Increase in AUC of biliary excretion ([1]; concurrent RT9Gy compared to sham group): 44.2%
Decrease in AUC of biliary excretion ([1]; sequential RT2Gy compared to concurrent RT2Gy): 39.5%
Decrease in AUC of biliary excretion ([1]; sequential RT9Gy compared to concurrent RT9Gy): 38.6%
Rho-123 intensity ([2]; concurrent RT2Gy): 99.2 ± 2.2
Rho-123 intensity ([2]; concurrent RT9Gy): 93.6 ± 3.4
Rho-123 intensity ([2]; sequential RT2Gy): 103.8 ± 0.6
Rho-123 intensity ([2]; sequential RT9Gy): 118.4 ± 0.9
